Source: paper PMC3933009, “Identification and characterization of a galacturonic acid transporter from Neurospora crassa and its application for Saccharomyces cerevisiae fermentation processes” (Biotechnology for Biofuels, 2014)

Experiments:
Assay type in all cases: cell-based
[1] = target: T1, uronate dehydrogenase (UDH) (Agrobacterium fabrum, UniProt Q7CRQ0); assay: bioconversion in engineered yeast, LC-MS/MS of meso-galactaric acid; details: 90 μM D-GalA, pH 5.8, 30°C; endogenous NAD+; GAT-1 co-expressed
T1 construct: open reading frame, Cen6/leu2 vector with TDH3 promoter, expressed in S. cerevisiae with gat-1-GFP integrated
T1 sequence (Q7CRQ0 1-265): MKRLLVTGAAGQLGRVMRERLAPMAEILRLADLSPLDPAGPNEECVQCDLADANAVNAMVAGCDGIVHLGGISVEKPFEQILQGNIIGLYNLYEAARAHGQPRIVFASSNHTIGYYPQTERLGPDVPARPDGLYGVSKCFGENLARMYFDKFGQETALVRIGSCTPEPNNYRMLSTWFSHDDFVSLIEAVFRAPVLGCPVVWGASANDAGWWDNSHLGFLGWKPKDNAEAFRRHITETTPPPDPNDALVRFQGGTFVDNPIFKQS

[2] = target: T2, D-galacturonate reductase (GAAA) (Aspergillus niger, UniProt A8DRH9); assay: bioconversion in engineered yeast, LC-MS/MS of L-galactonic acid; details: 90 μM D-GalA, pH 5.8, 30°C; endogenous NADPH; GAT-1 co-expressed; native yeast reductase background
T2 construct: codon-optimized gene, Cen6/leu2 vector with TDH3 promoter, expressed in S. cerevisiae with gat-1-GFP integrated
T2 sequence (A8DRH9 1-412): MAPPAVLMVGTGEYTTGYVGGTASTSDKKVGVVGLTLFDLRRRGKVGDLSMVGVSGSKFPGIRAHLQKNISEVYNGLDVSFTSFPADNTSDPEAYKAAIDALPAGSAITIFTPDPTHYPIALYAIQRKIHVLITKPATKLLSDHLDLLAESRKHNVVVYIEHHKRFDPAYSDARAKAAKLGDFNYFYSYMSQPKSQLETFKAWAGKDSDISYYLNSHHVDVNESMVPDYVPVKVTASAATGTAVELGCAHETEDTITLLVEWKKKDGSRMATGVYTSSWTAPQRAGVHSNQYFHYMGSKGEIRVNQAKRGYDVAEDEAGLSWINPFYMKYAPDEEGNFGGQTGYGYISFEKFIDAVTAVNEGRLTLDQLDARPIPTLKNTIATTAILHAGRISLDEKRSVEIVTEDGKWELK

[3] = target: T3, quinate permease (NCU06026; quinate-Y) (Neurospora crassa, UniProt P11636); assay: uptake by induced mycelia, WT versus deletion strain, MS detection; details: 90 μM quinic acid plus D-GalA, Vogel's salts, 25°C
T3 construct: gene qa-y; native protein in mycelia; wild type compared with deletion strain
T3 sequence (P11636 whole entry): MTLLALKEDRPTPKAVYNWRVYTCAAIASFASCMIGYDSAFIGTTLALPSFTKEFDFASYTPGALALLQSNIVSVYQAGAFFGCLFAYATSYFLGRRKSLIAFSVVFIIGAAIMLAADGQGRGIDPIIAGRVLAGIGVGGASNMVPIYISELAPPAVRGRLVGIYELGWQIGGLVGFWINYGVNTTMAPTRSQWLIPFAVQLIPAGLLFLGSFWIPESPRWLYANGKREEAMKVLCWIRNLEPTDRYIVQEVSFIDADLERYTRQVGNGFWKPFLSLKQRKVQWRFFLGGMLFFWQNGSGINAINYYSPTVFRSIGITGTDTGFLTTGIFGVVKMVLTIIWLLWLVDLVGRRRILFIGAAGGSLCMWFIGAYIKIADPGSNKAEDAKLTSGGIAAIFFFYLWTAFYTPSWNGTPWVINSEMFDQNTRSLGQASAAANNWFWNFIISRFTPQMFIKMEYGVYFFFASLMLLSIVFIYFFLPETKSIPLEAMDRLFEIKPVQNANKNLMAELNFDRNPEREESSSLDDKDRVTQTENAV

Row | SMILES | bioconversion in engineered yeast, LC-MS/MS of meso-galactaric acid [1] | bioconversion in engineered yeast, LC-MS/MS of L-galactonic acid [2] | uptake by induced mycelia, WT versus deletion strain, MS detection [3]
1 | O=C(O)[C@H]1OC(O)[C@H](O)[C@@H](O)[C@H]1O (stereo partly drawn) [D-GalA] | GalAA production was enzyme (UDH)dependent | expression of the reductase resulted in a higher product yield (GAAA/GAT-1) | 
2 | O=C(O)[C@]1(O)C[C@@H](O)[C@@H](O)[C@H](O)C1 [quinic acid] |  |  | almost completely unable to take up qa, indicating that it is the only physiologically relevant transporter
